Measurements reported in patent publication US20220241261A1, “COMBINATIONS OF INHIBITORS OF IRAK4 WITH INHIBITORS OF BTK” (Bayer Pharma Aktiengesellschaft, priority 2015, published 2022).

Tests used:
[1] = test system: ABC-DLBCL cell lines TMD-8 and HBL-1 and OCI-LY10; experiment: Cell proliferation measurement (Cell Titer Glo, combination, isobolograms); assay type: cell-based, human; conditions: combination with ibrutinib or RN486 or AVL-292 or CGI-1746; TMD-8, HBL-1, OCI-LY10 cells; 72 h
Procedure: The antiproliferative activity of the compounds of the general formula (I) as constituents of the inventive combinations was examined in vitro in human ABC-DLBCL cells. […] After 24 h, cells on one plate (0 h plate) were treated with 30 μl/cavity of CTG solution (Promega Cell Titer Glo (catalogue #G755B and G756B)) and incubated at room temperature for 10 min, and luminescence was measured by means of a VICTOR V (Perkin Elmer), in order to determine cell viability on commencement of treatment. The cells on the test plate were treated with the compounds of the general formula (I) as constituents of the inventive combinations and incubated at 37° C. for 72 h. […] As control, the cells were treated with vehicle (DMSO). After 72 h, the cells were treated with 30 μl/cavity of CTG solution (Promega Cell Titer Glo (catalogue #G755B and G756B)) and incubated at room temperature for 10 min, and luminescence was measured by means of a VICTOR V (Perkin Elmer), in order to determine cell viability at the end of treatment. […] The IC50 values were calculated using a 4-parameter fit. The combinatorial effect to test substances was determined on the basis of the above-described IC50 determination. […] This index allows a quantitative determination of substance interactions. A CI<1, =1, and >1 respectively describe synergistic, additive and antagonistic effects. […]

[2] = test system: secretion of TNF-α in THP-1 cells; experiment: TNF-α secretion in THP-1 cells (LPS-triggered, HTRF); assay type: cell-based; conditions: Homo sapiens, LPS stimulation, 17 h, read-out: IC50 with respect to the secretion of TNF-α in THP-1 cells
Procedure: With the aid of this test, it is possible to test substances for their ability to inhibit secretion of TNF-α (tumour necrosis factor alpha) in THP-1 cells (human monocytic acute leukaemia cell line). […] In this test, TNF-α secretion is triggered by incubation with bacterial lipopolysaccharide (LPS).
The cells were incubated at room temperature for 15 min. 2-2.5 of 0.1 μg/ml LPS (Sigma, Escherichia coli 055:B5, Cat. No. L5418) dissolved in cell culture medium (final concentration 0.05 ag/ml) were then dispensed into each well. As a neutral control, cells were treated with 0.05 ag/ml LPS and 1% DMSO and, as inhibitor control, only once with 1% DMSO.
The amount of TNF-α was determined using the TNF-alpha HTRF Detection Kit (Cisbio, Cat No. 62TNFPEB/C). To this end, in each case 2 μl of the detection solution consisting of anti-TNF-α-XL665 conjugate and anti-TNF-α-cryptate conjugate, dissolved in accordance with the manufacturer's instructions in the reconstitution buffer, were added for the HTRF (Homogeneous Time-Resolved Fluorescence) test. After the addition, the mixture was incubated either at room temperature for 3 h or at 4° C. overnight.
The activity of the substances is expressed as the ratio between neutral and inhibitor control in percent. The IC50 values were calculated using a 4-parameter fit.

relapsed DLBCL = conditions: phase 2 study; cited from earlier work
[3] = test system: human TMD-8 ABC-DLBCL tumours; conditions: TMD-8 xenograft, C.B-17 SCID mice, ibrutinib 10 mg/kg
Procedure: The anti-tumour activity of the compounds of the general formula (I) as constituents of the inventive combinations was examined in murine xenotransplantation models. For this purpose, female C.B-17 SCID mice were implanted subcutaneously with tumour cell lines of human B-cell lymphoma, e.g. TMD-8. At a mean tumour size of 20-30 mm^2, monotherapeutic treatment or treatment in combination with the standard ibrutinib treatment commenced, each of which were administered orally. This was preceded by randomization of the animals. […] The tumour size and the body weight were determined weekly for three weeks. Changes in the body weight were a measure of treatment-related toxicity (>10%=critical, stoppage in treatment until recovery, >20%=toxic, termination). The tumour area was detected by means of an electronic caliper gauge [length (mm)×width (mm)]. The anti-tumour efficacy defined the ratio of the tumour area of treatment versus control [tumour area of the treatment group on day X/tumour area of the control group on day X]. […] Statistical analysis was effected using single-factor ANOVA and comparison with the control group by means of pair-by-pair comparative analysis (Dunnett's test).
TMD-8 tumour cells were implanted subcutaneously on day 0 into female C.B-17 SCID mice. The treatment was started on day 15 at a tumour area of about 26 mm^2. […]

SMILES	antitumour (anti-proliferative) action of the combination compared to single treatments [1]	IC50 [2] [µM]	patients responded to treatment (relapsed DLBCL) [%]	Max. weight loss ([3]; QD p.o., Example 11 40 mg/kg, change versus initial body weight) [%]	effect on the tumour growth of TMD-8 (in words) ([3]; oral daily, Example Compound 11 40 mg/kg)
CC(C)(O)CCn1cc2cc(NC(=O)c3cccc(C(F)F)n3)c(C(C)(C)O)cc2n1 [Example 13, 6-(Difluoromethyl)-N-[2-(3-hydroxy-3-methylbutyl)-6-(2-hydroxypropan-2-yl)-2H-indazol-5-yl]pyridine-2-carboxamide]	distinct rise in antitumour action was almost always recorded	0.1			
Cc1nc(C(=O)Nc2cc3cn(CCC(C)(C)O)nc3cc2C(C)(C)O)ccc1F [Example 19, 5-Fluoro-N-[2-(3-hydroxy-3-methylbutyl)-6-(2-hydroxypropan-2-yl)-2H-indazol-5-yl]-6-methylpyridine-2-carboxamide]	distinct rise in antitumour action was almost always recorded	0.1			
C=CC(=O)N1CCC[C@@H](n2nc(-c3ccc(Oc4ccccc4)cc3)c3c(N)ncnc32)C1 [Ibrutinib, 1-{(3R)-3-[4-amino-3-(4-phenoxyphenyl)-1H-pyrazolo[3,4-d]pyrimidin-1-yl]piperidin-1-yl}prop-2-en-1-one]			40	−5	moderate inhibitory effect
